Earlier results on one compound are cited in US20250345336A1, “ALLOPURINOL ORAL SUSPENSION” (Extrovis AG, priority 2024, published 2025).

In the case of `Oc1ncnc2[nH]ncc12` [Allopurinol, 1,5-dihydro-4H-pyrazolo [3,4-d] pyrimidin-4-one], the aqueous solubility result is “poor aqueous solubility”.
